Data on 36 compounds can be found in US20070053834A1, “Radioligands for the TRP-M8 receptor and methods therewith” (priority 2003, published 2007).

The target in assay [1] is T1, TRP-M8 receptor (Homo sapiens, UniProt Q7Z2W7). The assay can be described thus: Patch-clamp whole-cell recordings in TRP-M8 transfected HEK cells. The format is cell-based. Also on record: expressed in transfected cells; host or cells: HEK (human embryonic kidney) cells, permanently transfected. The settings on record: whole-cell configuration, room temperature (20-23° C.). An excerpt: (§1) Cooling Actions on Skin. […] In Vitro Assays for TRP-M8 Activation. […] Brit. J Pharmacol. 2004 Feb; 141(4):737-45], and by A. K. Vogt-Eisele, D. Bura, H. Hatt, and E. T. Wei. [N-Alkylcarboxamide Cooling Agents: Activities on Skin and Cells with TRPM8 and TRPA1 Receptors. Acta Dermato-Venereol. 85: 468, 2005.] The data here were collected for the applicant by Dr. Afrodite Lourbakos of Unilever Research and Development, the Netherlands, using similar transfection methods and a FLIPR assay system. For the patch-clamp studies, using measurements of intracellular voltage changes, some of the data reported here were collected by Dr. Matthias Bödding of the University of the Saarland, and by Dr. Angela Vogt-Eisele of the Ruhr University at Bochum, Germany. FLIPR assay Human embryonic kidney (HEK) cells were permanently trausfected with plasmids containging the cDNA coding for the gene for the human TRP-M8 receptor. These cells were then incubated with a calcium fluorescence indicator (Fura-2) and incubated at either 29 or 37° C. These cells were then distributed into a 96-well fluorescence-plate image reader with automated drug dilution and computerized software for dose-response analysis. Cacium ion influx into cells after stimulation with compounds was quantified in fluorescence units. Compounds were dissolved in DMSO by ultrasonication to a 0.1 M solution. 5 μl of this stock was added to 5 mg of cyclodextrin and 5 ml of 140 Na-Tyrode, to achieve various final test concentrations.
T1 sequence (Q7Z2W7 whole entry): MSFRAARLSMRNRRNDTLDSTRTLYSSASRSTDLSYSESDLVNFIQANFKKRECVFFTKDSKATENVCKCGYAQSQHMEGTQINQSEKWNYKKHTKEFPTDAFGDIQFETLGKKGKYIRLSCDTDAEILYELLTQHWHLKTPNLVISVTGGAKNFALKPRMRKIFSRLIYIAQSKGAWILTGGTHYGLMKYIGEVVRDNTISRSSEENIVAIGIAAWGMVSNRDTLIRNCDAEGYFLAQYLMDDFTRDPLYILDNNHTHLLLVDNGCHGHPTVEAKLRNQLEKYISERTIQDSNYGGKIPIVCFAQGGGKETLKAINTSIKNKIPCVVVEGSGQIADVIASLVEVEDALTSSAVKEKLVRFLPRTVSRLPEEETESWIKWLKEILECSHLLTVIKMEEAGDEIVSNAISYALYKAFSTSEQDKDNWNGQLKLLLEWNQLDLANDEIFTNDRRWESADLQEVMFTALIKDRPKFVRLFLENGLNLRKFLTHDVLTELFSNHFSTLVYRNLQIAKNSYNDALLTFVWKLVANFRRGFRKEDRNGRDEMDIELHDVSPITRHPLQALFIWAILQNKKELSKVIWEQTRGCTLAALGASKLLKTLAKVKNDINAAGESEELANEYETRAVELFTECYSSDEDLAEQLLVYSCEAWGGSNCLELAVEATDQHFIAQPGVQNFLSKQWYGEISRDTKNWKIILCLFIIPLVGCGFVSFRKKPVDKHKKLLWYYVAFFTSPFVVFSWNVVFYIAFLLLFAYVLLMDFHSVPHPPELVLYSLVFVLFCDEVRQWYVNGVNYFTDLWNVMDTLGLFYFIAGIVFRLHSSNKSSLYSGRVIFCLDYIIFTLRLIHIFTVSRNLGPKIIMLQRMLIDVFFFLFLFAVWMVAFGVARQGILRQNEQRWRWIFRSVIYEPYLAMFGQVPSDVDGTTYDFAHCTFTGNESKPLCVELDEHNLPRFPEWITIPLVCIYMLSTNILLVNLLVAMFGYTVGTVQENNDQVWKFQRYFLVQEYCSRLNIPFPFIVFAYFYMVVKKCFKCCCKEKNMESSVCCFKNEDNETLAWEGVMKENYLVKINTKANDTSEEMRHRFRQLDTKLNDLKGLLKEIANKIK
Patch-Clamp Electrophysiological Recordings. HEK cells were prepared as above. Membrane currents were recorded in the whole-cell configuration using an EPC-9 amplifier (HEKA Elektronik, Lambrecht, Germany) as described previously (Bödding et al. 2002). […] Extracellular solution contained (in mM): 145 NaCl, 2 CaCl2, 2.8 KCl, 2 MgCl2, 11 glucose, 10 HEPES, adjusted to pH 7.2 with NaOH. Drugs were applied in the bath solution by a custom-made local perfusion system. The series resistance was compensated for 80 % and ranged between 5 and 10 MΩ. Currents were filtered using an 8-pole Bessel filter at 2.9 kHz and digitised at 100 μs. Voltage ramps (−110 mV to 90 mV in 50 ms) were applied at 0.5 Hz from a holding potential of −10 mV using PULSE software (HEKA Electronics). Several parameters such as capacitance, series resistance and holding current were monitored simultaneously at a slower rate (2 Hz) using the X-Chart display (HEKA Electronics). A liquid junction potential of 10 mV was applied to all voltages. All experiments were carried out at room temperature (20-23° C.). Internal solutions were kept on ice to minimize hydrolysis of ATP.
(In general: Patch clamp records ionic current or voltage across a cell membrane.)

Assay [2] addresses T1, TRP-M8 receptor. The assay can be described thus: FLIPR calcium influx assay in HEK cells transfected with human TRP-M8. The class given is cell-based. More on the design: expressed in transfected cells; host or cells: HEK (human embryonic kidney) cells, permanently transfected. To be noted: HEK cells with human TRP-M8, Fura-2, 29 or 37° C.
Source text: as §1

For assay [3], the target named is T1, TRP-M8 receptor. Kind of assay: Cold sensation threshold on tongue (filter paper test). The settings on record: for Cold Sensation Threshold on Tongue: filter paper 1 × 1 cm impregnated with compound, 30 sec, presence or absence of cooling. The class given is in vivo. More on the design: The endogenous TRP-M8 receptor is a physiological receptor designed to detect temperature changes; from tissue; host or cells: tongue (sensory nerve endings), in vivo. From the text: In Vivo Assays for TRP-M8 Activation. The endogenous TRP-M8 receptor is a physiological receptor designed to detect temperature changes in its environment and to transmit this signal to the central nervous system so that appropriate regulatory responses can be initiated (e.g. vasoconstriction to reduce heat loss, putting on warmer clothing, avoiding the cold environment).
The TRP-M8 receptor on cold sensory nerve endings and on malignant cells, for example in the prostate, are biochemically identical proteins. Thus, the potency of a molecule to elicit cold sensations, for example on the tongue or skin, was used as surrogate index of the binding affinity of the molecule for the TRP-M8 receptor. A number of potent “N-radiohaloaryl-carboxamides” were synthesized and tested for use as precursors of the inventive compounds and the results are shown in Table 1.

SMILES strings stand for the structures.

As to `COc1ccc(NC(=O)C2CC(C)CCC2C(C)C)cc1` (stereo not shown) [CPS-112 (WS-12), N-(4′-methoxyphenyl)-2-isopropyl-5-methylcyclohexanecarboxamide], the 50% effective concentration (EC50) (in general, the concentration giving half of the maximal effect) on TRP-M8 receptor [1] came to 0.2 µM; at TRP-M8 receptor [2] it was 0.6 µM. Taken in the same sequence, the figures for `COc1ccc(NC(=O)C2CC(C)CCC2C(C)C)cc1F` (stereo not shown) [CPS-113, N-(3′-fluoro, 4′-methoxyphenyl)-2-isopropyl-5-methyl-cyclohexanecarboxamide] were 1.2 µM and 1.3 µM. For `CC1CCC(C(C)C)C(C(=O)Nc2ccc(I)cc2)C1` (stereo not shown) [CPS-120], on TRP-M8 receptor [2], the EC50 was 10 µM. Same read-out and setting: as for `CC1CCC(C(C)C)C(C(=O)Nc2ccc(Br)cc2)C1` (stereo not shown) [CPS-123], the figure is 6 µM.

Take `CC1CCC(C(C)C)C(C(=O)Nc2ccc(F)cc2)C1` (stereo not shown) [CPS-124, N-(4′-fluorophenyl)-2-isopropyl-5-methylcyclohexanecarboxamide]: the EC50 at TRP-M8 receptor [1] worked out at 1.2 µM; at TRP-M8 receptor [2], 1.3 µM. As for `CC1CCC(C(C)C)C(C(=O)Nc2ccc(S(=O)(=O)Nc3ncccn3)cc2)C1` (stereo not shown) [CPS-125, 2-Isopropyl-5-methyl-cyclohexanecarboxylic acid [4-(pyrimidin-2-ylsulfamoyl)-phenyl]-amide], the EC50 at TRP-M8 receptor [1] came to 3 µM; on TRP-M8 receptor [2] it was 6 µM. On to `CC1CCC(C(C)C)C(C(=O)Nc2ccc(OC(F)(F)F)cc2)C1` (stereo not shown) [CPS-127], for which the EC50 at TRP-M8 receptor [2] is more than 100 µM. The same measure, in the same setting: for `CCOc1ccc(NC(=O)C2CC(C)CCC2C(C)C)cc1` (stereo not shown) [CPS-128] the value was 0.5 µM. Turning to `COc1ccc(NC(=O)C2CC(C)CCC2C(C)C)c(I)c1` (stereo not shown) [CPS-129, N-(2′-iodo-4′methoxyphenyl)-2-isopropyl-5-methylcyclohexanecarboxamide], the concentration for a half-maximal effect (EC50) at TRP-M8 receptor [1] came out at 0.3 µM.

Consider `CC1CCC(C(C)C)C(C(=O)Nc2ccc([N+](=O)[O-])c(C(F)(F)F)c2)C1` (stereo not shown) [CPS-138], for which, at TRP-M8 receptor [2], the 50% effective concentration (EC50) is more than 100 µM.

With `COc1cccc(NC(=O)C2CC(C)CCC2C(C)C)c1` (stereo not shown) [CPS-141], the EC50 on TRP-M8 receptor [2] was 6 µM. Compound `CC1CCC(C(C)C)C(C(=O)N(C)C[C@H](O)c2cccc(O)c2)C1` (stereo partly shown) [CPS-195, 2-Isopropyl-5-methyl-cyclohexanecaboxylic acid [2-hydroxy-2-(3-hydroxy-phenyl)-ethyl]-methyl-amide] yielded an EC50 on TRP-M8 receptor [1] of 0.1 µM.

Consider `Cc1ccc(NC(=O)C2(C(C)C)CCCCCC2)c(C)c1` [N-(2′,4′-dimethylphenyl)-1-isopropylcycloheptanecarboxamide], for which the “Cold Sensation Threshold on Tongue” value at TRP-M8 receptor [3] stood at 15 µg. On the same count and under the same terms, for `Cc1ccc(NC(=O)C(C)(C(C)C)C(C)C)c(C)c1` [N-(2′,4′-dimethylphenyl)-2-isopropyl-2,3-dimethylbutyramide] the value was 1 µg.

As to `Cc1ccc(NC(=O)C2CC(C)CCC2C(C)C)c(C)c1` (stereo not shown) [N-(2′,4′-dimethylphenyl)-2-isopropyl-5-methylcyclohexanecarboxamide], the “Cold Sensation Threshold on Tongue” value at TRP-M8 receptor [3] is 0.1 µg. On the same count and under the same terms, as for `CC1CCC(C(C)C)C(C(=O)Nc2ccccc2O)C1` (stereo not shown) [N-(2′-hydroxyphenyl)-2-isopropyl-5-methylcyclohexanecarboxamide], the figure is 0.5 µg; as for `COc1ccc(NC(=O)C2(C(C)C)CCCCCC2)cc1OC` [N-(3′,4′-dimethoxyphenyl)-1-isopropylcycloheptanecarboxamide], 5 µg; as for `Cc1ccc(NC(=O)C2(C(C)C)CCCCCC2)cc1C` [N-(3′,4′-dimethylphenyl)-1-isopropylcycloheptanecarboxamide], 15 µg. The same measure, in the same setting: as for `Cc1ccc(NC(=O)C(C)(C(C)C)C(C)C)cc1C` [N-(3′,4′-dimethylphenyl)-2-isopropyl-2,3-dimethylbutyramide], the figure is 3 µg; as for `Cc1ccc(NC(=O)C2(C(C)C)CCCCCC2)cc1O` [N-(3′-hydroxy-4′-methylphenyl)-1-isopropylcycloheptanecarboxamide], 1 µg; as for `Cc1ccc(NC(=O)C2CC(C)CCC2C(C)C)cc1O` (stereo not shown) [N-(3′-hydroxy-4′-methylphenyl)-2-isopropyl-5-methylcyclohexanecarboxamide], 0.1 µg. The same measure, in the same setting: for `CC(=O)c1ccc(NC(=O)C2CC(C)CCC2C(C)C)cc1` (stereo not shown) [N-(4′-acetylphenyl)-2-isopropyl-5-methylcyclohexanecarboxamide] the value was 2 µg.

On to `CC1CCC(C(C)C)C(C(=O)Nc2ccc(Cl)cc2)C1` (stereo not shown) [N-(4′-chlorophenyl)-2-isopropyl-5-methylcyclohexanecarboxamide], for which, on TRP-M8 receptor [3], the “Cold Sensation Threshold on Tongue” value was determined as 8 µg. Still for that read-out and setting: as for `CCOC(=O)c1ccc(NC(=O)C2CC(C)CCC2C(C)C)cc1` (stereo not shown) [N-(4′-ethoxycarbonylphenyl)-2-isopropyl-5-methylcyclohexanecarboxamide], the figure is 5 µg; as for `CC1CCC(C(C)C)C(C(=O)Nc2ccc(F)cc2)C1` (stereo not shown) [N-(4′-fluorophenyl)-2-isopropyl-5-methylcyclohexanecarboxamide], 0.5 µg; as for `CC1CCC(C(C)C)C(C(=O)Nc2ccc(O)cc2)C1` (stereo not shown) [N-(4′-hydroxyphenyl)-2-isopropyl-5-methylcyclohexanecarboxamide], 1 µg. On the same count and under the same terms, for `COc1ccc(NC(=O)C2(C(C)C)CCCCCC2)c(C)c1` [N-(4′-methoxy-2′-methylphenyl)-1-isopropylcycloheptanecarboxamide] the value was 0.2 µg; for `CCC1(C(=O)Nc2ccc(OC)cc2)CCCCCC1C` (stereo not shown) [N-(4′-methoxyphenyl)-1-ethyl-2-methylcycloheptanecarboxamide], 6 µg; for `COc1ccc(NC(=O)C(C)(C(C)C)C(C)C)cc1` [N-(4′-methoxyphenyl)-2-isopropyl-2,3-dimethylbutyramide], 0.5 µg. The same measure, in the same setting: for `COc1ccc(NC(=O)C(C)(CC(C)C)C(C)C)cc1` (stereo not shown) [N-(4′-methoxyphenyl)-2-isopropyl-2,4-dimethylpentanamide] the value was 2 µg; for `COc1ccc(NC(=O)C2CC(C)CCC2C(C)C)cc1` (stereo not shown) [N-(4′-methoxyphenyl)-2-isopropyl-5-methylcyclohexanecarboxamide], 0.1 µg.

As for `CC1CCC(C(C)C)C(C(=O)Nc2ccc([N+](=O)[O-])cc2)C1` (stereo not shown) [N-(4′-nitrophenyl)-2-isopropyl-5-methylcyclohexanecarboxamide], the “Cold Sensation Threshold on Tongue” value on TRP-M8 receptor [3] amounted to 0.3 µg. `CCNC(=O)C1CC(C)CCC1C(C)C` (stereo not shown) [N-ethyl p-menthane-3-carboxamide, reference compound] displayed an oral cooling threshold on TRP-M8 receptor [3] of 0.2 µg. The same measure, in the same setting: as for `CNC(=O)C1CC(C)CCC1C(C)C` (stereo not shown) [N-methyl p-menthane-3-carboxamide, reference compound], the figure is 1.1 µg. For the compound `CC1CCC(C(C)C)C(C(=O)Nc2ccccc2)C1` (stereo not shown) [N-phenyl-2-isopropyl-5-methylcyclohexanecarboxamide], the “Cold Sensation Threshold on Tongue” value on TRP-M8 receptor [3] came to 20 µg. On the same count and under the same terms, for `CC1CCC(C(C)C)C(C(=O)NCc2ccccc2)C1` (stereo not shown) [N-phenylmethyl-2-isopropyl-5-methylcyclohexanecarboxamide] the value was 20 µg.
